We go through one compound from publication PMC10819767, “An ADAM10 Exosite Inhibitor Is Efficacious in an In Vivo Collagen-Induced Arthritis Model” (Pharmaceuticals, 2024).

“Also recorded” adds a separate entry of the source.

For series [1], the system named is collagen-induced arthritis (CIA) model. The series can be described thus: CIA mouse model: clinical arthritis score and paw swelling. Type of series: in vivo, C57 BL/6 mice. The following applies: for disease score: scale 0–4. The method, then: In vivo efficacy in the CIA mouse model. All animal studies were conducted in accordance with NSU IACUC guidelines. Study protocol #2021.04.DM5 was approved by NSU IACUC before the commencement of the studies. CID 3117694 and indomethacin were ground with a small amount of the dispersing agent (0.5% HPMC (3 cP)–0.5% Tween 80) using a mortar and a pestle and mixed repeatedly to form a smooth paste. The paste was moved to a graduated cylinder and filled up to the required volume with the dispersing agent to form a suspension, as described elsewhere. The test compound (10, 30, and 50 mg/kg) and indomethacin (2.5 mg/kg) were administered with a mouse gavage needle (gauge no: 18, BD, catalog number: 653902) through the oral route as a suspension with a 5 mL/kg dose volume (from day 0 to day 28). In this study, 6–8-week-old C57 BL/6 mice from Charles River (male and female) were used. Animals were randomly assigned to one of the following six groups: (1) normal (non-RA control), (2) RA control untreated, (3) RA control treated with 2.5 mg/kg/day indomethacin, and 3 test groups (CID 3117694 (10 mg/kg/day, 30 mg/kg/day, and 50 mg/kg/day)) to provide an estimate for the lead compound’s efficacy range. Each group had three males and three females assigned to the control for gender-based differences. Arthritis was induced in the right paws of the mice under anaesthesia. The left paw of the mice was used as a control. A total of 10 µL collagen from bovine (type II collagen) nasal septum emulsion (2 mg/mL) was injected into the right knee joint with a glass Hamilton syringe and 25 G needles for intraarticular (i.a.) injection, followed by a total of 100 µL Complete Freund’s adjuvant (CFA) emulsion was injected at the back of mice using a syringe with 25 G needles subcutaneously (s.c.). On day 14 after the first injection, the mice were injected, i.e., with 10 µL of collagen from the bovine nasal septum ([…]) and s.c. with a 100 µL CFA emulsion for a boost injection. Arthritis progression was monitored using a clinical arthritis scoring system (0–4), and paw swelling was measured with the help of a plethysmograph on days 0, 14, 21, and 28 after the induction of arthritis. […] After the administration of a primary dose of collagen from the bovine nasal septum, CFA scoring was assessed. Measurements were taken on days 0, 14, 21, and 28 after the induction of arthritis in induced paws (right paw) and non-arthritis paws (left paw). CID 3117694 (10 mg/kg/day, 30 mg/kg/day, and 50 mg/kg/day) and pharmacological control (indomethacin 2.5 mg/kg/day) treatment were given every day for 28 days beginning from day 1 via oral gavage in hydroxy-propyl-methyl cellulose (HPMC) suspension.

In a further series the test system is IL-10. Briefly: RA serum marker ELISA, IL-10, CIA mice. The series is classed as in vivo, C57 BL/6 mice. As for the experimental part:
(§1) The sample size for therapeutic evaluation was calculated using power analysis based on experimental data from similar studies. In a two-sided test and setting the α value at 0.05 and desired power at 0.95, the sample size turned out to be 5 per group. We also expected deaths during the experiments; therefore, we used the formula Nt = N/1-q, where Nt is the number of mice initially used, N is the number required at the end of the study, and q is the proportion of attrition, which is generally 10%. Thus, at the end of the study period, we expected to have data from at least 6 mice per group, which is enough to attain statistical significance if it exists. Data were analyzed using a one-way ANOVA followed by Dunnett’s test compared with the vehicle control. At the end of the study, the mice were anesthetized and sacrificed using CO2 euthanasia. The hind paws of the mice were subjected to a histopathological examination, and the serum was analyzed for CRP, TNF-α, IL-6, and IL-10, as described in the below sections.
RA serum marker analysis. Blood was collected from the tail vein, and 100 µL was used for the assays. All assays were conducted using the manufacturer’s instructions for the respective assay kits. The following assay kits were purchased: Mouse TNF-α GENLISA™ ELISA (Krishgen BioSystems cat#KB2145, Mumbai, India), Mouse IL-10 GENLISA™ ELISA (Krishgen BioSystems cat#KB2072), Mouse hsC-Reactive Protein, hs-CRP GENLISA™ ELISA (Krishgen BioSystems cat#KLM0318), Mouse IL-6 GENLISA™ ELISA (Krishgen BioSystems cat#KB2068).
(An ELISA detects its analyte on a solid surface through an enzyme-linked reagent.)

For series [2], the system named is articular joints affected by RA. The series can be described thus: Histopathology (H & E) of arthritic joint, CIA mice. Type of series: in vivo, C57 BL/6 mice. The method, then: as §1, with “sections. Histology. Limbs from euthanized animals were preserved in buffered formalin, decalcified, embedded, sectioned, and stained with hematoxylin and eosin (H & E). Microscopic images were acquired using the Lx 400 microscope (Labomed, Fremont, CA, USA).” for “sections.”

For a further series, the system named is OPRK1. Further details: method as in PMID 34817776. Conditions: cited from earlier work.
The next series concerns OPRD1. Further details: method as in PMID 34817776. The following applies: cited from earlier work.
The subject of the next series is multiple cell lines. Further details: method as in PubChem Assay IDs 1794763-1794787, 19, 20. Conditions: 10 µM and up to 100 µM in some cases; ref PubChem Assay IDs 1794763-1794787, 19, 20; cited from earlier work.

On to `COc1cccc(C(=O)NNC(=O)C(=O)Nc2ccc(C)c(Cl)c2)c1` [CID 3117694], for which the “paw swelling vs normal control (in words)” value in series [1] (50 mg/kg/day) is “decreased the swelling to the level of the normal control”. In addition, the disease score is listed as 4 in series [1] (day 21, 10 mg/kg oral); “three” in series [1] (day 21, 30 mg/kg oral); 2 in series [1] (day 21, 50 mg/kg oral); 2 in series [1] (day 28, 10 mg/kg oral); 2 in series [1] (day 28, 30 mg/kg oral); 1 in series [1] (day 28, 50 mg/kg oral). In addition, the “IL-10 blood level vs healthy control” value in the series with IL-10 (CID 3117694 50 mg/kg/day, indomethacin 2.5 mg/kg) was “decreased the markers to the level of the healthy control”. In addition, in the series on IL-10 (all tested doses (10, 30, 50 mg/kg), vs vehicle control), the “concentration of IL-10 in the blood of arthritic mice” value is on record as “lowers”. Also, the “histopathological findings (in words)” value was “did not have a pronounced effect on RA markers” in series [2] (10 mg/kg/day); “reduced erosion but not the rest of the symptoms” in series [2] (30 mg/kg/day); “significant reduction in RA hallmarks in most samples; also recorded: healthy bone and cartilage similar to the healthy controls” in series [2] (50 mg/kg/day). The “activity against OPRK1” value in the series on OPRK1 was “inactive”. In the series with OPRD1, the “activity against OPRD1” value was “inactive”. The “effect on cellular viability” value in the series on multiple cell lines was “no effect”.
